Counter-ions that a name gives are not always drawn.
Legend:
[1] = system: B16-F10 syngeneic melanoma tumors; assay: Subcutaneous B16-F10 syngeneic melanoma tumor model, oral dipivefrin as single agent; type: in vivo, C57BL/6J mice; settings: for MST (median survival time): vehicle 17.0
Description: The treatments were started 7 days before tumor inoculation per study design (day −7).
The endpoints of the study included the following: tumor growth inhibition (TGJ); reduction in median tumor volume on a given day; survival of all animals will be followed and Median Survival Time (MST) and increase in life-span (ILS) will be calculated for each group.
The percent tumor growth inhibition (TGJ %) is an indication of antitumor effectiveness, and is expressed as: TGJ (%)=100× (1-TIC), in which T and C are the mean tumor volume of the treated and control groups, respectively, on a given day.
The endpoint for each mouse is either a tumor volume >3000 mm^3 or the animal is in extreme discomfort (such as pain, seizure, difficulty breathing, etc.). The increase in life-span (ILS) is calculated as follows: ILS (%)=100× [(Median Survival Time of drug treated group/Median Survival Time of vehicle group)−1] (%)
Female C57BL/6J mice (Shanghai Lingchang Bio-Technology Co. Ltd (LC, Shanghai, China; Animal Certificate No.: 2013001825675) were used in the study. At inoculation, mice were 7-8 weeks old with a body weight of 16.2-18.6 g. The mice were kept in an Individually Ventilated Cage (IVC) system at constant temperature (22˜24° C.) and humidity (60-70%) with 5 animals in each cage. Animals had free access during the entire study period to a standard mouse diet (a Co^60 irradiation-sterilized dry granule food) and water.
The test articles used in the study were dipivefrin hydrochloride (1.9 mg/ml freebase, pre-formulated dosing solution) or the vehicle (purified water containing 0.005% wt of benzalkonium chloride as preservative). Each was stored at 4° C. The B16-F10 tumor cells were maintained in vitro as a monolayer culture in DMEM medium supplemented with 10% fetal bovine serum at 37° C. in an atmosphere of 5% CO2 in air. The tumor cells were routinely subcultured twice per week. The cells growing in an exponential growth phase were harvested and counted for tumor inoculation.
Each mouse was inoculated subcutaneously at the right flank region with 2×10^5 B16F10 tumor cells in 0.1 ml of PBS for tumor development. The treatments were started 7 days prior to the inoculation. The test article was administered to the tumor-bearing mice according to the predetermined regimen as shown in the Study Design Table 3. The date of tumor cell inoculation was denoted as day 0.
First grouping: On day 7, all 30 animals were weighed and the body weight was used as numeric parameter to randomize selected animals into two groups in an effort to minimize systematic error.
Second grouping: On day 8, all 20 animals in group-1 were randomized into two groups (1a and 1b) based on tumor volume. Dose administrations were performed as shown Table 5.
After tumor cell inoculation, animals were checked daily for morbidity and mortality. At the time of routine monitoring, the animals were checked for any effects of tumor growth and treatments on normal behavior such as mobility, food and water consumption, body weight gain/loss (body weights were measured twice or thrice per week), eye/hair matting and any other abnormal effect. Death and observed clinical signs were recorded on the basis of the numbers of animals within each subset.
Tumor volumes were measured twice or thrice per week in two dimensions using a caliper, with the volume in mm^3 estimated using the formula: V=0.5 a×b^2 where a and b are the long and short perpendicular diameters of the tumor, respectively. The procedures of dosing as well as tumor and body weight measurement were conducted in a Laminar Flow Cabinet.
On day 17, mice which tumor volumes exceeded 3000 mm^3 were euthanized and the whole study was terminated on day 19. Additionally, mouse #15 in group 1-b was dead on day 13 due to an operation error, while mouse #7 in group 1-a was found dead on day 18 due to tumor ulceration. […]

[2] = for clinical observations after IM injection: dose equivalent to 0.3 mg epinephrine, 3 mice per group
[3] = system: influenza A/California/04/2009 (H1N1pdm) virus; assay: Influenza A (H1N1pdm) virus infection in mice, single oral dose; type: in vivo, C57BL/6J mice; settings: for body weight loss during infection vs placebo: single p.o. dose 8.48 mg/kg 24 hours after infection, 6-day observation, p<0.05 days 5 and 6; for body weight loss during infection vs placebo / influenza virus titers in lung tissues vs placebo: 8.48 mg/kg; for influenza virus titers in lung tissues vs placebo: day 3 or 6 p.i.
[4] = human, in vivo, im; cited from earlier work
in vivo = type: in vivo, New Zealand White Rabbits
[5] = beagle dogs N=3, IM 0.3 mg, mean ± SEM
Experimental: Four days prior to study initiation, 1 mL of whole blood was collected from four (n=4) non-naive male Beagle dogs, aged 1.5-6.5 years and ranging from 9.8 to 10.8 kilograms in weight, into 4 chilled tubes containing K2EDTA. The blood was processed to plasma and plasma cholinesterase activity was assayed according to the Ellman method using acetylthiocholine iodide as the substrate (Ellman, G. L. et al Biochemical Pharmacology, 1961, volume 7, page 88-95). Based on the plasma cholinesterase activity assay results, the first three dogs with highest plasma cholinesterase activity were selected for the PK study.
The dogs were housed one per cage and identified by ear tags and cage labels. The animals were healthy at the start of the study. Primary enclosures were as specified in the USDA Animal Welfare Act (9 CFR, Parts 1, 2, and 3) and as described in the Guide for Care and Use of Laboratory Animals (ILAR publication, 2011, National Academy Press). Animals were fasted for a minimum of 12 hours prior to dosing and returned 4 hours post dose; Water was supplied ad libitum to the animals.
Dosing occurred at 0 hours on the appropriate day in accordance with the Study Design table (Table 11). […] The intramuscular dose was administered via 25 gauge needle and syringe into the lateral aspect of the left or right thigh. […]

[6] = Pharmacokinetic profile after single oral administration in mice (plasma epinephrine by LC/MS/MS); type: in vivo, C57BL6 mice; settings: oral (also IM and IP) administration
Experimental: Male C57BL6 mice, approximately 14 weeks of age and weighing between 28 and 31 g, were placed in an anesthesia chamber and transiently anesthetized with isoflurane (Henry Schein). After approximately 5 minutes and in the absence of reflex (toe pinch), mice were bled via retro-orbital sinus at t=0 (pre-dose). […] Following oral administration, mice were then retro-orbital bled under anesthesia at the following time points post-dose: 15, 30, 1 h, 2 h, 4 h, and 6 h. About 45 μl of the diluted plasma was recovered and plated. The plasma samples were analyzed for epinephrine using a validated LC/MS/MS method (Keystone Bioanalytics, North Wales Pa.).

[7] = system: methicillin-resistant Staphylococcus aureus (MRSA) NRS71-Sanger 252; assay: Peritonitis-sepsis model of MRSA infection; type: in vivo, C57BL/6J mice
Experimental: Two (2) groups of C57BL/6J 6 to 8 week old female mice (ca 20 g body weight) with 10 mice/group were injected IP with 2×10^8 CFU/mL of methicillin-resistant Staphylococcus aureus (MRSA) NRS71-Sanger 252 in a volume of 200 μL. The treatment group was dosed with dipivefrin 15.3 mg/kg (freebase) by oral gavage starting at t=−5 days relative to bacterial inoculation. Dosing occurred once daily up to 7 days post bacterial inoculation. Body weights were measured once per day on days 0 to 7 and the experimental endpoint was survival at 7 days. Animals falling below 20% of original weight post-infection was euthanized. Four hours (4 hours) post infection, blood was drawn from 4 animals in each group and bacterial load was determined through a standard plating assay. Each blood sample was diluted by serial log dilutions and 10 dilutions (100 to 10-s) was plated in duplicate on TSA with 5% sheep's blood. The plates were incubated for 24 hours at 37° C. at which time formed colonies was enumerated and CFU/mL was determined. One mouse in the vehicle group was found dead the next day following infection and no subsequent death occurred up to 7 days post infection. No mouse died in the treatment group up to 7 days post infection.

SMILES: CNCC(O)c1ccc(OC(=O)C(C)(C)C)c(OC(=O)C(C)(C)C)c1 (stereo not drawn) [Dipivefrin HCl, Dipivefrin hydrochloride]
- drug related deaths ([1]; 15.3 mg/kg (freebase) p.o. daily, study period): no drug related deaths were observed
- effect on body weight ([1]; 15.3 mg/kg (freebase) p.o. daily, tumor-bearing mice): no effect on body weight
- mean tumor volume ([1]; 5 days post B16F10 inoculation, 15.3 mg/kg p.o. QD from day -7, vehicle 16.4±2.5, p<0.01): 6.2±1.1 mm^3
- absorption and conversion into epinephrine ([2]; mice, IM 0.636 mg): absorbed rapidly upon IM injection and quickly converted into epinephrine
- clinical observations after IM injection ([2]; mice): appeared to be normal throughout the study and showed no signs of distress or illness
- body weight loss during infection vs placebo ([3]; hydrochloride): less weight loss compared to placebos
- influenza virus titers in lung tissues vs placebo ([3]; single p.o. dose 8.48 mg/kg, hydrochloride): slightly lower in treated mice compared to placebos, the difference was not statistically significant

SMILES: CNC[C@H](O)c1ccc(O)c(O)c1 [Epinephrine]
- Tmax [4]: 1.12 ± 0.717 h
- AUC(0-t) (in vivo; female, New Zealand White, rabbit, in vivo, im, 0.3 mg): 19.6 ng·h/mL
- Cmax (plasma epinephrine) (in vivo; rabbits, IM 0.3 mg, mean±SEM): 50.23 ± 14.95 ng/mL
- AUClast (plasma epinephrine) [5]: 147.37 ± 39.41 ng·min/mL

SMILES: CNCC(O)c1ccc(OC(=O)C(C)(C)C)c(OC(=O)C(C)(C)C)c1 (stereo not drawn) [dipivefrin, 4-(1-hydroxy-2-(methylamino)ethyl)-1,2-phenylene bis(2,2-dimethylpropanoate)]
- median tumor volume ([1]; 14 days post B16F10 inoculation, 15.3 mg/kg p.o. QD, vehicle 1060, p<0.05): 827 mm^3
- ILS (increase in life-span) ([1]; Group-1b vs vehicle group 1a, p=0.038): 12%
- MST (median survival time) ([1]; Group-1b, 15.3 mg/kg p.o. from day 8): 19.0 days
- MST (median survival time) ([1]; Group-2, 15.3 mg/kg p.o. from day -7): 18.0 days
- ILS (increase in life-span) ([1]; Group-2 vs vehicle, p=0.175): 6%
- mean tumor volume ([1]; day 19, group 1b, 15.3 mg/kg p.o. QD from day 8 (established tumor), vehicle 3668.0±311.9): 2997.2±341.6 mm^3
- reduction in mean tumor volume compared to vehicle ([1]; day 19, group 1b, dosing from day 8): about 18%
- absorption and biotransformation into epinephrine [6]: absorbed and biotransformed into epinephrine rapidly
- survival at 7 days post infection ([7]; 15.3 mg/kg (freebase) oral gavage once daily from day -5 to day 7, 10 mice): No mouse died
- blood bacterial counts ([7]; 4 hours post infection, 4 animals per group, p<0.05): significantly higher for the vehicle treated group than the drug treated group
- body weight loss during infection vs placebo [3]: losing less weight
- influenza virus titers in lung tissues vs placebo ([3]; single p.o. dose 8.48 mg/kg): did not differ significantly
- visual lung hemorrhage score (scale 0 to 4) ([3]; single p.o. dose 8.48 mg/kg, lungs day 3 and day 6 p.i.): 0-3
- lung virus titers day 6 p.i. vs day 3 p.i. ([3]; single p.o. dose 8.48 mg/kg, p<0.05): lower virus titers in lung tissues on day 6 p.i. than on day 3 p.i

SMILES: CNC[C@H](O)c1ccc(O)c(O)c1 [epinephrine bitartrate]
- mice found dead ([2]; IM epinephrine bitartrate 0.546 mg (0.3 mg freebase), approximately 20 minutes post administration): Two out of three
- clinical observations after IM injection ([2]; mice): cold and lethargic approximately 5 minutes after IM injection

From US20220193010A1, “METHODS OF USING DIPIVEFRIN” (INSIGNIS THERAPEUTICS, INC., priority 2017, published 2022)
